Legend:
Assay in all cases: relative viability (nuclei count vs DMSO), 5 days (fraction); higher = more cells survive
[1] = compound: COC1=CC(c2cc3ccccc3[nH]2)=N/C1=C\c1[nH]c(C)cc1C [Obatoclax]
In short: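 Vehicle-anchored 1536-well plates of lung cancer cell lines, held overnight at 37 °C, were pinned with five library-drug doses (not always all listed) spaced by √10. No medium change followed over the next 5 days, after which the cells were fixed, permeabilised and Hoechst-stained together and imaged at 4×. Nuclei were counted with MetaXpress, and viability is treated-well nuclei over vehicle-well nuclei, taken as a median across plates. Plates passed with control CV below 25% and at least one doubling.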

[2] = compound: CC(C)C[C@H](NC(=O)[C@H](Cc1ccccc1)NC(=O)c1cnccn1)B(O)O [Bortezomib] + N=C(N)NC(=N)NCCc1ccccc1 [Phenformin] (partner 250 µM)
In short: (§1)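 A single step with final 0.05% Triton X-100, 1% formaldehyde and 1 ug/ml Hoechst fixed the cells and stained nuclei 5 days after treatment. Lung cancer cell lines in 1536-well plates had been treated by pin tool the day after seeding with one drug alone or a fixed anchor-drug dose plus five library-drug doses (not always all listed) in √10 steps, and nuclei were counted on 4× images. Relative viability is the ratio of nuclei in treated wells to nuclei in vehicle wells, taken as the median of duplicate plates.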

[3] = compound: CC1=CC(=NN1)NC2=CC(=NC(=N2)/C=C/C3=CC=CC=C3)N4CCN(CC4)C + CC(C)C[C@H](NC(=O)[C@H](Cc1ccccc1)NC(=O)c1cnccn1)B(O)O [Bortezomib] (partner 0.002 µM)
In short: as §1

[4] = compound: CC1=CC(=NN1)NC2=CC(=NC(=N2)/C=C/C3=CC=CC=C3)N4CCN(CC4)C + C[C@@H](Oc1cc(-c2cnn(C3CCNCC3)c2)cnc1N)c1c(Cl)ccc(F)c1Cl [Crizotinib] (partner 1 µM)
In short: as §1

Cell Line | relative viability ([1]; 0.01 µM) | relative viability ([1]; 0.03162 µM) | relative viability ([1]; 0.1 µM) | relative viability ([1]; 0.3162 µM) | relative viability ([1]; 1 µM) | relative viability ([2]; first compound 0.0002 µM) | relative viability ([2]; first compound 0.000632 µM) | relative viability ([2]; first compound 0.002 µM) | relative viability ([2]; first compound 0.006325 µM) | relative viability ([2]; first compound 0.02 µM) | relative viability ([3]; first compound 0.08 µM) | relative viability ([3]; first compound 0.253 µM) | relative viability ([3]; first compound 0.8 µM) | relative viability ([3]; first compound 2.53 µM) | relative viability ([3]; first compound 8 µM) | relative viability ([4]; first compound 0.08 µM) | relative viability ([4]; first compound 0.253 µM) | relative viability ([4]; first compound 0.8 µM) | relative viability ([4]; first compound 2.53 µM) | relative viability ([4]; first compound 8 µM)
HARA | 0.947 | 0.956 | 1.01 | 0.908 | 0.827 | 0.374 | 0.447 | 0.512 | 0.222 | 0.0528 | 0.971 | 1.31 | 1.09 | 0.352 | 0.109 | 1.05 | 1.01 | 0.932 | 0.138 | 0.1
NCI-H2126 | 1.03 | 0.959 | 0.931 | 0.989 | 0.918 | 0.528 | 0.534 | 0.538 | 0.34 | 0.256 | 1.07 | 1.14 | 1.19 | 1.09 | 1.02 | 1.01 | 1 | 0.994 | 0.916 | 0.529
HCC-827 | 0.97 | 0.957 | 0.946 | 1.05 | 0.979 | 0.428 | 0.379 | 0.442 | 0.192 | 0.101 | 1.03 | 1.13 | 0.951 | 0.923 | 0.641 | 0.91 | 0.999 | 0.877 | 0.636 | 0.381
ABC-1 | 1.05 | 0.971 | 0.753 | 0.828 | 0.448 | 0.231 | 0.227 | 0.202 | 0.186 | 0.175 | 0.418 | 0.268 | 0.303 | 0.257 | 0.205 | 0.866 | 1.25 | 0.562 | 0.182 | 0.169
BEN | 1.02 | 0.821 | 0.727 | 0.922 | 0.953 | 0.258 | 0.266 | 0.264 | 0.259 | 0.174 | 0.854 | 0.992 | 0.831 | 0.523 | 0.197 | 0.881 | 1.09 | 0.804 | 0.675 | 0.167
ChaGo-K-1 | 0.997 | 0.829 | 1.01 | 0.931 | 1.06 | 0.416 | 0.455 | 0.45 | 0.462 | 0.153 | 0.994 | 1.2 | 1.15 | 0.285 | 0.241 | 1.1 | 1.07 | 1.13 | 0.484 | 0.267
NCI-H23 | 1.01 | 0.853 | 0.832 | 0.761 | 0.389 | 0.79 | 0.652 | 0.785 | 0.277 | 0.114 | 0.909 | 0.949 | 0.826 | 0.196 | 0.139 | 0.559 | 0.603 | 0.439 | 0.181 | 0.108
UMC-11 | 1.02 | 0.962 | 0.843 | 0.921 | 0.554 | 0.371 | 0.313 | 0.333 | 0.292 | 0.236 | 0.718 | 0.726 | 0.636 | 0.12 | 0.08 | 0.519 | 0.528 | 0.41 | 0.0737 | 0.062
NCI-H1975 | 1.02 | 0.865 |  | 0.977 | 0.717 | 0.405 | 0.35 | 0.115 | 0.0978 | 0.106 | 0.403 | 0.408 | 0.31 | 0.159 | 0.109 | 0.91 | 0.958 | 0.548 | 0.186 | 0.147
COR-L 105 | 0.884 | 1.08 | 0.992 | 0.69 | 0.436 | 0.542 | 0.4 | 0.428 | 0.328 | 0.256 | 0.744 | 0.988 | 0.76 | 0.263 | 0.231 | 0.897 | 0.731 | 0.445 | 0.222 | 0.191
EKVX | 1.07 | 0.891 | 0.905 | 0.982 | 0.918 | 0.238 | 0.237 | 0.238 | 0.239 | 0.139 | 0.987 | 1.33 | 1.2 | 0.824 | 0.141 | 0.991 | 1.12 | 0.978 | 0.552 | 0.147
NCI-H2009 | 0.958 | 1.02 | 0.85 | 0.626 | 0.301 | 0.512 | 0.479 | 0.492 | 0.113 | 0.0828 | 1.04 | 0.54 | 1.11 | 0.423 | 0.15 | 1.06 | 0.94 | 1.02 | 0.534 | 0.22
NCI-H838 | 0.995 | 0.945 | 0.78 | 0.904 | 0.65 | 0.6 | 0.526 | 0.64 | 0.127 | 0.115 | 0.759 | 0.802 | 0.705 | 0.168 | 0.0832 | 0.89 | 0.936 | 0.742 | 0.434 | 0.0999
NCI-H2085 | 0.962 | 0.975 | 0.9 | 0.943 | 0.56 | 0.757 | 0.826 | 0.693 | 0.318 | 0.16 | 1.06 | 1.05 | 1.07 | 0.651 | 0.333 | 0.859 | 0.831 | 0.753 | 0.343 | 0.266

Source: the supplement of paper PMC10307832
